In patent US9539321B2, “HMGB1-derived peptides enhance immune response to antigens” (The Regents of the University of California, priority 2010, dated 2017):
“Also recorded” adds a separate entry of the source. Where two headings read alike, the source gives them in different places. Where a SMILES comes first, the peptide text is derived from it. The star is where a group is joined. Biotin = O=C1N[C@H]2[C@H](CS[C@H]2CCCCC(=O)*)N1

Columns and labels:
[1] = test system: p-IRF3 in RAW 264.7 macrophages; experiment: Immunoblotting for phospho-IRF3; type: cell-based, mouse; conditions: Dynasore 80 μM pre-treatment
J774 macrophages [2] = type: cell-based, mouse
J774 macrophages [3] = experiment: Uptake of Cp488-labeled Hp91 by macrophages, flow cytometry; type: cell-based, mouse; conditions: Dynasore 80 μM, Cp488-labeled Hp91 200 μg ml^−1
[4] = Adverse effects of tested doses in mice; type: in vivo
Immature human DCs [5] = experiment: Peptide binding/uptake by flow cytometry; conditions: for uptake by DCs: biotinylated peptide 200 μg ml^−1, 30 minutes, 37° C.
Immature human DCs [6] = experiment: Stimulation of DCs, IL-6 by ELISA; type: cell-based; conditions: for effect of inhibitor pre-treatment on Hp91-induced IL-6 secretion: SB203580 5 or 20 μM, PD98059 20 μM, TPCK 20 μM, 48 h
[7] = test system: antigen-specific IFN-γ secreting T cells; experiment: IFN-γ ELISPOT of splenocytes from immunized mice; type: in vivo, C57BL/6 mice; conditions: for number of antigen-specific IFNγ-secreting T cells compared to PBS: equimolar peptide with SIINFEKL peptide
Protocol: Female C57BL/6 mice 8-12 weeks of age were used for most experiments. All mice were purchased from Charles River Laboratories (Boston, Mass., USA) and housed at the Moores UCSD Cancer Center animal facility. All animal studies were approved by the Institutional Animal Care and Use Committee of UCSD and were perfolined in accordance with the institutional guidelines. For most experiments, mice were immunized s.c. with 50 μg of SIINFEKL (OVA-I) peptide (SEQ ID NO: 45) and 50 μg of ISQAVHAAHAEINEAGR (OVA-II) peptide (SEQ ID NO: 46). The OVA peptide was co-administered with either Hp91 (30 to 500 μg) or PBS (negative control). For some experiments, a protein vaccine group was included, wherein 500 μg of Hp91 was co-administered with 100 μg of LPS-free OVA protein. As a positive control, mice were immunized s.c. with OVA peptide(s) or protein in Incomplete Freund's Adjuvant “IFA” (Sigma-Aldrich, St. Louis, Mo., USA). If not otherwise indicated, mice were immunized and boosted two weeks later and spleens and blood were collected 10-14 days after the final immunization.
Single cell suspensions of splenocytes were prepared by mechanical disruption and separation through a 70 μm nylon cell strainer (BD Biosciences, Franklin Lakes, N.J., USA). Red blood cells were lysed using ammonium chloride buffer (Roche Diagnostics, Indianapolis, Ind., USA) and the splenocytes were subsequently resuspended in complete medium (RPMI 1640 with 10% FBS, L-glutamine, penicillin, streptomycin, and HEPES). in some experiments, CD4+ and CD8+ cells were depleted from bulk splenocyte populations using anti-CD4 or anti-CD8α conjugated microbeads (Miltenyi-Biotec, Auburn, Calif., USA) according to the manufacturer's instructions.
Freshly isolated splenocytes were plated in duplicate to wells of a nitrocellulose bottom enzyme-linked immunospot (ELISPOT) plate (Millipore, Millerica, Mass., USA) that had been previously coated overnight with 5 μg ml^−1 monoclonal anti-mouse IFN-γ antibody (Mabtech, Stockholm, Sweden). Splenocytes were cultured overnight at 37° C. with 2.5 μg ml^−1 SIINFEKL (OVA-I) peptide, 2.5 μg ml^−1 ISQAVHAAHAEINEAGR (OVA-II) peptide, or left unstimulated (medium only). After 18 h, culture supernatants were collected for cytokine analysis and ELISPOT plates were developed using 1 μg ml^−1 biotinylated anti-mouse IFN-γ antibody (Mabtech), Streptavidin-HRP (Mabtech), and TMB Substrate (Mabtech). The plate was scanned and the spots were counted using an automated ELISpot Reader System (CTL ImmunoSpot, Shaker Heights, Ohio, USA).
Mice were immunized s.c. with 50 μg of SIINFEKL peptide. The SIINFEKL peptide was co-administered with either PBS, Hp91 (250 μg), or scrambled Hp91 (250 μg). Peptides were dissolved in PBS for all immunizations, Mice were boosted two weeks later and spleens and blood were collected one week after the final immunization. Single cell suspensions of splenocytes were prepared by mechanical disruption and separation through a […] nylon cell strainer (BD Biosciences). Red blood cells were lysed using ammonium chloride buffer (Roche Diagnostics, Indianapolis, Ind.) and the splenocytes were subsequently resuspended in RPMI 1640 medium (Invitrogen) supplemented with 10 mmol HEPES (GIBCO-BRL), penicillin (100 U/mL)—streptomycin (100 μg/mL)—glutamine (2 mM) (GIBCO-BRI.), arid 5% (vol/vol) fetal calf serum (Omega).
Freshly isolated splenocytes were plated in duplicate to wells of a nifrocellulose bottom enzymelinked immunospot (ELISPOT) plate (Millipore, NAillerica, Mass., USA) that had been previously coated overnight with 5 μg ml^−1 monoclonal anti-mouse IFN-γ antibody (Mabtech, Stockholm, Sweden). Splenocytes were cultured overnight at 37° C., with 2.5 μg ml^−1 SIINFEKL peptide, 5 μg ml^−1 concanavalin A positive control (Sigma), or left unstimulated (medium only). […]

Circular dichroism = type: physicochemical; conditions: 75%/25% TFE/H2O, 200 μg ml^−1
Protocol: CD spectra of peptides, dissolved in 75%/25% Trifluoroethanol (TFE, Sigma)/H2O (vol/vol), were collected on an AVIV model 202 Circular Dichroism Spectrometer, under nitrogen, using a 1 mm pathlength quartz cuvette. These spectra were corrected by subtraction of a “solvent-only” spectrum and smoothed. The spectra are shown in mean residue ellipticity (θmrw). Peptides were analyzed at 200 μg ml^−1.

splenocytes = experiment: IL-2 / IL-4 secretion of splenocytes from immunized mice by ELISA; type: in vivo, C57BL/6 mice
Protocol: Splenocytes were cultured overnight with 2.5 μg ml^−1 OVA-I peptide, 2.5 μg ml^−1 OVA-II peptide, 5 μg ml^−1 concanavalin A positive control (Sigma), or left unstimulated (media only). After 18 h, cell culture supernatants were collected and analyzed for the presence of IL-2 and IL-4 by ELISA (eBioscience).
(§1) To measure cytokine release from immunized mice, splenocytes were cultured overnight with 2.5 μg ml^−1 SINFEKI: peptide, 5 μg ml^−1 concanavalin A positive control (Sigma), or left unstimulated (medium only). After 18 h, cell culture supernatants were collected and analyzed for the presence of IL-2 by ELISA. (eBioscience).
as §1, with “SIINFEKL” for “SINFEKI:”, “(media” for “(medium”, “ELISA” for “ELISA.”

B16 melanoma cells = experiment: Prophylactic B16 tumor challenge
Immature human DCs [8] = experiment: Confocal microscopy of peptide binding/uptake; type: cell-based; conditions: even after 30 minutes at 37° C.
Protocol: Immature human DCs (10^5) were pre-cooled on ice and subsequently incubated for 30 minutes on ice in culture medium with biotinylated Hp91 or Hp121 to allow peptide binding. Cells were washed and then incubated for the indicated time at 37° C. Cells were cytospun (Shandon Cytospin 2 centrintge) onto glass slides, fixed, pernieabiiized with acetone, and stained with Streptavidin-Alexa 488 (Invitrogen) to visualize biotinylated peptides and Hoechst 33258 DNA stain (Invitrogen). Cells were imaged on a Zeiss LSM confocal microscope.

mouse BM-DCs = experiment: Stimulation of mouse BM-DCs, IL-6 by ELISA; type: cell-based
Immature human DCs [9] = conditions: cited from earlier work
[10] = biotinylated, 90 μM, 30 minutes 37° C.

In the case of `O=C(N/N=C/c1ccc(O)c(O)c1)c1cc2ccccc2cc1O` [Dynasore], the “effect on Hp91-induced phosphorylation of IRF3” value [1] is reported as “reduced the phosphorylation of IRF3”, the “effect of inhibitor pre-treatment on Hp91-induced IL-6 secretion” value (J774 macrophages [2]) is reported as “significantly reduced” and the “effect on uptake of Hp91” value (J774 macrophages [3]) is reported as “significantly inhibited uptake”.

For `CC(C)C[C@H](NC(=O)[C@H](Cc1ccccc1)NC(=O)[C@H](Cc1ccccc1)NC(=O)[C@H](C)NC(=O)[C@H](CO)NC(=O)[C@@H]1CCCN1C(=O)[C@@H]1CCCN1C(=O)[C@H](CCCNC(=N)N)NC(=O)[C@H](CCCCN)NC(=O)[C@@H]1CCCN1C(=O)[C@H](C)NC(=O)[C@H](CC(N)=O)NC(=O)[C@@H]1CCCN1C(=O)[C@H](CC(=O)O)NC(=O)CCCC[C@@H]1SC[C@@H]2NC(=O)N[C@@H]21)C(=O)N[C@@H](Cc1ccccc1)C(=O)N[C@@H](CS)C(=O)N[C@@H](CO)C(=O)N[C@@H](CCC(=O)O)C(=O)O` [Hp91, DPNAPKRPPSAFFLFCSE] (Biotin-DPNAPKRPPSAFFLFCSE-OH), the adverse effects [4] was “no adverse effects”.

In the case of `C/C1=C/C(=O)O[C@@H]2C[C@@H](CC[C@H](C)/C=C\CC1)O[C@@](O)([C@@H]1CSC(=O)N1)C2` [Latrunculin B], the “effect of inhibitor pre-treatment on uptake of biotinylated Hp91” value (Immature human DCs [5]) is reported as “did not significantly reduce” and the “uptake of Dextran FITC” value (Immature human DCs [5]) is reported as “completely abrogating”.

In the case of `COc1cccc(-c2cc(=O)c3ccccc3o2)c1N` [PD98059], the “effect of inhibitor pre-treatment on Hp91-induced IL-6 secretion” value (Immature human DCs [6]) is reported as “failed to significantly reduce”.

With `C[S+]([O-])c1ccc(-c2nc(-c3ccncc3)c(-c3ccc(F)cc3)[nH]2)cc1` (stereo not drawn) [SB203580] the “effect of inhibitor pre-treatment on Hp91-induced IL-6 secretion” value (Immature human DCs [6]) was “significantly reduced” and the “effect of inhibitor pre-treatment on Hp91-induced IL-6 secretion” value (J774 macrophages [2]) was “significantly lowered”.

In the case of `[N-]=[N+]=[N-]` [Sodium azide, sodium azide], the inhibition at 10000 µM (Immature human DCs [5]; Homo sapiens, read-out: inhibition of Hp91 uptake) is reported as ~40%.

In the case of `N=C(N)NC(=O)c1nc(Cl)c(N)nc1N` [amiloride], the “effect of inhibitor pre-treatment on uptake of biotinylated Hp91” value (Immature human DCs [5]; 30 minutes pre-treatment, PAO 2 μM, CP 100 μM, NY 20 μM, AM 2 mM) is reported as “failed to significantly reduce”.

For `CN(C)CCCN1c2ccccc2Sc2ccc(Cl)cc21` [chlorpromazine], the “effect of inhibitor pre-treatment on Hp91-induced IL-6 secretion” value (J774 macrophages [2]) was “no reduction” and the “effect of inhibitor pre-treatment on uptake of biotinylated Hp91” value (Immature human DCs [5]) was “significantly reduced”.

With `C[C@@H]1[C@H](O)[C@@H](C)/C=C/C=C/CC/C=C/C=C/C=C/C=C/C(O[C@H]2O[C@H](C)[C@@H](O)[C@H](N)[C@@H]2O)CC2O[C@](O)(CC(O)C(O)CCC(O)CC(O)CC(O)CC(=O)O[C@H]1C)CC(O)C2C(=O)O` (stereo partly drawn) [nystatin] the “effect of inhibitor pre-treatment on uptake of biotinylated Hp91” value (Immature human DCs [5]) was “failed to significantly reduce”.

With APKRPPSA (UC411 peptide) the “endocytosis by DCs” value (Immature human DCs [5]; [10]) was “failed to be endocytosed”.

For “ASLAPPFPNCFDPKSREF (scrambled Hp91 peptide)”, the “antigen-specific immune response (IFN-γ ELISPOT, IL-2)” value ([7]; 250 μg with SIINFEKL peptide, compared to Hp91) was “failed to mount an antigen-specific immune response” and the “uptake by DCs” value (Immature human DCs [5]) was “much lesser extent than Hp91; also recorded: not taken up”.

For DPNAPKRP (UC18 peptide), the “secondary structure from CD spectrum” value (Circular dichroism) was “polyproline II helix” and the “endocytosis by DCs” value (Immature human DCs [5]; [10]) was “failed to be endocytosed”.

In the case of “N-tosyl-L-phenylalanine chloromethyl ketone [TPCK]”, the “effect of inhibitor pre-treatment on Hp91-induced IL-6 secretion” value (Immature human DCs [6]) is reported as “significantly reduced” and the “effect of inhibitor pre-treatment on Hp91-induced IL-6 secretion” value (J774 macrophages [2]) is reported as “significantly lowered”.

With RPPSAFFL (UC714 peptide) the “IFNγ-secreting T cells relative to full-length Hp91 peptide” value ([7]; equimolar doses) was 50%, the “number of antigen-specific IFNγ-secreting T cells compared to PBS” value [7] was “moderate increases” and the “endocytosis by DCs” value (Immature human DCs [5]; [10]) was “failed to be endocytosed”.

In the case of RPPSAFFLFCSE (UC718 peptide), the “IL-6 / cytokine secretion from DCs” value (Immature human DCs [6]; short peptides, 48 hours) is reported as “induces cytokine release from DCs”.

For SAFFLFCSE [UC1018], the “adjuvant strength in vivo relative to Hp91, by IFN-γ ELISPOT and IL-2 cytokine release” value ([7]; discussion statement) was 3 fold, the “IFNγ ELISPOT immune response relative to Hp91 positive control” value ([7]; equimolar doses) was 4 fold and the “number of antigen-specific IFNγ-secreting T cells compared to PBS” value [7] was “significant increase”. The “IL-2 level relative to Hp91 controls” value (splenocytes; equimolar doses) was 4 fold, the IL-2 (splenocytes; immunized with SIINFEKL peptide and peptide adjuvant) was “significantly enhanced” and the “secondary structure from CD spectrum” value (Circular dichroism) was “alpha helix”. The “tumor formation and tumor growth vs PBS group” value (B16 melanoma cells; 142 μg with apoptotic B16 cells, significant as early as 11 days post challenge) was “delay in tumor formation and slowing of tumor growth”, the “mice tumor-free and alive” value (B16 melanoma cells; at 75 days post tumor challenge) was 60% and the “uptake by DCs compared to Hp91 controls” value (Immature human DCs [5]; [10]) was “over 3 fold”.

With SIGDVAKKLGEMWNNTAA (Hp121 peptide) the “number of INF-γ secreting cells” value ([7]; s.c. with OVA-I peptide, 250 μg peptide, freshly isolated and expanded splenocytes, vs PBS/OVA-I) was “No significant increase”, the “detection within DCs” value (Immature human DCs [8]) was “not detected” and the “activation of mouse BM-DCs in vitro” value (mouse BM-DCs) was “does not cause activation”. The “activation of human DCs in vitro” value (Immature human DCs [9]) was “does not cause activation” and the “uptake by DCs” value (Immature human DCs [5]) was “not taken up”.
